Test results from US20050202093A1, “Prolonged suppression of electrical activity in excitable tissues” (priority 2002, published 2005).

Key:
[1] = tested on: hippocampus of pilocarpine-treated rats; test: Hippocampal histology two weeks after seizure induction (thionin cell loss score, Timm stain score); format: in vivo, Sprague Dawley rats; details: dosage 5 μg
Experimental: Two weeks after induction of seizure, animals were sacrificed and prepared for routine histology and Timm histochemistry. Following deep anesthesia with sodium pentobarbital (100 mg/kg), rats were perfused transcardially with 300 ml sodium sulfide medium (2.295 g Na2S, 2.975 g NaH2PO4/H2O in 500 ml H2O) followed by 300 ml 4% paraformaldehyd were postfixed in 4% paraformaldehyde for 24 h and then placed in a 30% sucrose solution until they sank to the bottom of the vial. Coronal sections through the entire extent of the hippocampus were cut at 40 μm on a freezing microtome and sections were stored in phosphate buffered saline. Every fourth section was stained for mossy fibers using Timm stain as follows. The sections were developed in the dark for 40-45 min in a solution of 50% Arabic gum (120 ml), 10 ml of citric acid (51 g/100 ml H2O), 10 ml sodium citrate (47 g/100 ml H2O), 3.47 g hydroquinone in 60ml, and 212.25 mg AgNO3. Following washing, the slides were dehydrated in alcohol, cleared in xylene, and mounted on slides with Permount (Fisher Scientific, Pittsburgh, Pa.). Timm staining was analyzed using a scoring system (0 to 5) for terminal sprouting in the CA3 and supragranular regions (Holmes G L, Gaiarsa J L, Chevassus-Au-Louis N, Ben-Ari Y. Consequences of neonatal seizures in the rat: morphological and behavioral effect. Ann. Neurol. 1998; 44: 845-857; Holmes G L, Sarkisian M, Ben-Ari Y, Chevassus-Au-Louis N. Mossy fiber sprouting following recurrent seizures during early development in rats. J. Comp. Neurol. 1999; 404: 537-553; each of which is incorporated herein by reference). […] Slides were analyzed for cell loss in the CA3, CA1 and hilar region using a semi-quantitative visual scoring system (0 to 5) (Mikati M A, Holmes G L, Chronopoulos A, et al. Phenobarbital modifies seizure-related brain injury in the developing brain. Ann. Neurol. 1994; 36: 425-433; incorporated herein by reference). Cell loss was assessed both ipsilateral and contralateral to the injection site. […]

pilocarpine-treated rats = test: Focal pilocarpine-induced seizures after intrahippocampal pretreatment, behavior scored 0-6; format: in vivo, Sprague Dawley rats
Experimental: The method is similar to that described by Cavalheiro et al. (Cavalheiro E A, Czuzwar S J, Kleinrok S. Intracerebral cholinomimetics produce seizure-related brain damage in rats. Brit. J. Pharmacol. 1983; 79: 284P; incorporated herein by reference). Animals were anesthetized with pentobarbital (40 mg/kg) and an electrode-cannula guide (Plastic one, USA) was stereotactically implanted in the CA3 region of the dorsal hippocampus (lateral from midline 3.5 mm, posterior from bregma 3.8 mm, and 3.8 mm deep from skull; FIG. 35 in (Paxinos G, Watson C. The rat brain in stereotaxic coordinates, 4th edition. San Diego: Academic Press, 1998; incorporated herein by reference)). The electrode-cannula guide was fixed to skull using dental cement and skull screws. After surgery, a dummy cannula was placed into the guide cannula to prevent occlusion. One week later the rats received 30 μl of one anticonvulsant or control treatment (encapsulated or free) through the cannula using a microinfusion pump (Baxter, model AS40A) for 15 min at a rate of 0.12 ml/hr. Thirty minutes after completion of these treatments, 40 mM pilocarpine was infused for 50 min at a rate of 0.12 ml/hr. Subsequently, continuous EEGs were recorded from the electrode-cannulae, and the animals were videotaped for a minimum of two hours. […]

Structure (SMILES): NCc1cc(=O)[nH]o1 [free muscimol, Muscimol]
- Timm scores CA3 region ([1]; n=4, mean ± SD): 1.48 ± 0.63
- Timm scores Supragranular ([1]; n=4, mean ± SD): 1.75 ± 0.28
- Total cell loss ([1]; n=4, thionin staining, mean ± SD): 6.27 ± 0.57
- seizure activity as measured by behavior score, versus normal saline (pilocarpine-treated rats; 5 μg intrahippocampal prior to pilocarpine, 120 minute time course, n=4): reduces seizure activity
- mortality (pilocarpine-treated rats; unencapsulated comparison groups to the 10 μg and 20 μg particle groups): high mortality
